pIC50: −log10 of the molar value.
System: 323965-272-R-J2-PDC complex spheroid viability
Assay: Anticancer human tumor 323965-272-R-J2-PDC patient-derived pancreatic carcinoma cell line growth inhibition [CLK]
Conditions: for pIC50: curve of first compound; for viability, T/C: stronger effect = lower value
Method in brief: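 Multi-cell-type spheroids combined patient-derived tumor cells with HUVEC endothelial cells and human mesenchymal stem cells. Paired agents were dosed in half-log steps down from about clinical Cmax, or from 10 microM where Cmax was unknown.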

[1] = second compound 0.0316 µM, first compound 0.00316 µM
[2] = second compound 0.0316 µM, first compound 0.01 µM
[3] = second compound 0.0316 µM, first compound 0.0316 µM
[4] = second compound 0.0316 µM, first compound 0.1 µM
[5] = second compound 0.1 µM, first compound 0.00316 µM
[6] = second compound 0.1 µM, first compound 0.01 µM
[7] = second compound 0.1 µM, first compound 0.0316 µM
[8] = second compound 0.1 µM, first compound 0.1 µM
[9] = second compound 0.316 µM, first compound 0.00316 µM
[10] = second compound 0.316 µM, first compound 0.01 µM
[11] = second compound 0.316 µM, first compound 0.0316 µM
[12] = second compound 0.316 µM, first compound 0.1 µM
[13] = second compound 1 µM, first compound 0.00316 µM
[14] = second compound 1 µM, first compound 0.01 µM
[15] = second compound 1 µM, first compound 0.0316 µM
[16] = second compound 1 µM, first compound 0.1 µM
[17] = second compound 3.16 µM, first compound 0.00316 µM
[18] = second compound 3.16 µM, first compound 0.01 µM
[19] = second compound 3.16 µM, first compound 0.0316 µM
[20] = second compound 3.16 µM, first compound 0.1 µM
[21] = second compound 10 µM, first compound 0.00316 µM
[22] = second compound 10 µM, first compound 0.01 µM
[23] = second compound 10 µM, first compound 0.0316 µM
[24] = second compound 10 µM, first compound 0.1 µM
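Note: spheroids exposed to agents for seven days before readout.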
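Throughout, for viability, T/C: percent of DMSO vehicle control wells so 100% = untreated growth.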

Structure (SMILES): CCc1c2c(nc3ccc(O)cc13)-c1cc3c(c(=O)n1C2)COC(=O)[C@]3(O)CC + CN1CCN(c2cc(C(=O)Nc3cc4cc(-c5cnn(C)c5)ccc4cn3)ccn2)CC1
- pIC50 (second compound 0.0316 µM): 8.12
- pIC50 (second compound 0.1 µM): > 8.50
- pIC50 (second compound 0.316 µM): > 8.50
- pIC50 (second compound 1 µM): > 8.50
- pIC50 (second compound 3.16 µM): > 8.50
- pIC50 (second compound 10 µM): > 8.50
- viability, T/C [1]: 77.2%
- viability, T/C [2]: 41.7%
- viability, T/C [3]: 28.6%
- viability, T/C [4]: 27.2%
- viability, T/C (second compound 0.0316 µM, first compound 0.316 µM): 25.7%
- viability, T/C (second compound 0.0316 µM, first compound 1 µM): 24.1%
- viability, T/C [5]: 42.6%
- viability, T/C [6]: 33.3%
- viability, T/C [7]: 26%
- viability, T/C [8]: 24.7%
- viability, T/C (second compound 0.1 µM, first compound 0.316 µM): 20.1%
- viability, T/C (second compound 0.1 µM, first compound 1 µM): 19.7%
- viability, T/C [9]: 22.2%
- viability, T/C [10]: 23.1%
- viability, T/C [11]: 18.6%
- viability, T/C [12]: 20.3%
- viability, T/C (second compound 0.316 µM, first compound 0.316 µM): 19.1%
- viability, T/C (second compound 0.316 µM, first compound 1 µM): 6.86%
- viability, T/C [13]: 3.79%
- viability, T/C [14]: 3.36%
- viability, T/C [15]: 2.56%
- viability, T/C [16]: 2.23%
- viability, T/C (second compound 1 µM, first compound 0.316 µM): 1.14%
- viability, T/C (second compound 1 µM, first compound 1 µM): 0.61%
- viability, T/C [17]: 4.21%
- viability, T/C [18]: 3.48%
- viability, T/C [19]: 3.05%
- viability, T/C [20]: 1.79%
- viability, T/C (second compound 3.16 µM, first compound 0.316 µM): 1.1%
- viability, T/C (second compound 3.16 µM, first compound 1 µM): 0.61%
- viability, T/C [21]: 4.27%
- viability, T/C [22]: 6.63%
- viability, T/C [23]: 2.33%
- viability, T/C [24]: 1.69%
- viability, T/C (second compound 10 µM, first compound 0.316 µM): 0.96%
- viability, T/C (second compound 10 µM, first compound 1 µM): 0.59%

Structure (SMILES): Cn1ncnc1[C@H]1c2n[nH]c(=O)c3cc(F)cc(c23)N[C@@H]1c1ccc(F)cc1 + CN1CCN(c2cc(C(=O)Nc3cc4cc(-c5cnn(C)c5)ccc4cn3)ccn2)CC1
- pIC50 (second compound 0.0316 µM): < 7.00
- pIC50 (second compound 0.1 µM): < 7.00
- pIC50 (second compound 0.316 µM): > 9.50
- pIC50 (second compound 1 µM): > 9.50
- pIC50 (second compound 3.16 µM): > 9.50
- pIC50 (second compound 10 µM): > 9.50
- viability, T/C (second compound 0.0316 µM, first compound 0.000316 µM): 96.1%
- viability, T/C (second compound 0.0316 µM, first compound 0.001 µM): 96%
- viability, T/C [1]: 90%
- viability, T/C [2]: 93.3%
- viability, T/C [3]: 97%
- viability, T/C [4]: 68.3%
- viability, T/C (second compound 0.1 µM, first compound 0.000316 µM): 67.6%
- viability, T/C (second compound 0.1 µM, first compound 0.001 µM): 65.7%
- viability, T/C [5]: 61.6%
- viability, T/C [6]: 74%
- viability, T/C [7]: 61.1%
- viability, T/C [8]: 46.1%
- viability, T/C (second compound 0.316 µM, first compound 0.000316 µM): 23.8%
- viability, T/C (second compound 0.316 µM, first compound 0.001 µM): 26.9%
- viability, T/C [9]: 23%
- viability, T/C [10]: 27.9%
- viability, T/C [11]: 24.6%
- viability, T/C [12]: 21.8%
- viability, T/C (second compound 1 µM, first compound 0.000316 µM): 2.64%
- viability, T/C (second compound 1 µM, first compound 0.001 µM): 3.21%
- viability, T/C [13]: 3.5%
- viability, T/C [14]: 2.88%
- viability, T/C [15]: 5.47%
- viability, T/C [16]: 3.21%
- viability, T/C (second compound 3.16 µM, first compound 0.000316 µM): 4.62%
- viability, T/C (second compound 3.16 µM, first compound 0.001 µM): 3.78%
- viability, T/C [17]: 5.87%
- viability, T/C [18]: 3.77%
- viability, T/C [19]: 4.01%
- viability, T/C [20]: 4.38%
- viability, T/C (second compound 10 µM, first compound 0.000316 µM): 4.34%
- viability, T/C (second compound 10 µM, first compound 0.001 µM): 4.75%
- viability, T/C [21]: 6.41%
- viability, T/C [22]: 4.13%
- viability, T/C [23]: 4.28%
- viability, T/C [24]: 4.85%

Source: PubChem BioAssay AID2060619 (Molecular Pharmacology Branch, DTP, NCI, 2025)
